Test results taken from US8901089B2, “Composition comprising an amorphous non-crystalline glass form of roxithromycin” (North-West University, priority 2009, dated 2014).
In brackets after ≈: the same amount, converted by molar mass.

Experiments:
Assay type in all cases: physicochemical
[1] = Solubility of Form-II and roxithromycin raw material in three media, HPLC assay; conditions: for solubility at 24 h: 37 °C, thermodynamic from solid
Procedure: In further analysis of the novel Form-II, five test tubes with 100 mg of Form-II and 10 ml of one of the following solubility mediums respectively, namely, acetate buffer (pH 4.5), phosphate buffer (pH 6.8) and distilled water were filled.
The test tubes are then fixed to a rotating axis (54 rpm) and submerged in a water bath at 37 degrees Celsius±2 degrees Celsius for twenty-four hours. The contents of the test tubes are filtered through a 0.45 μm filter and subsequently the respective filtrates are diluted.
(§1) The concentrations of the five filtrates of Form-II and roxithromycin raw material respectively are determined by HPLC (high performance liquid chromatography) assay. The HPLC assay is performed utilising a mobile phase of 30 g/L ammonium dihydrogen phosphate buffer at pH 5.3. The pH is adjusted with sodium hydroxide solution and 310 ml of the buffer solution is mixed with 690 ml acetonitrile. A Luna C18 150 mm×4.6 mm column is used with a flow rate of 1.0 ml/min and a wavelength of 205 nm. Validation of this method provides a linear regression r^2 of 0.9998.

[2] = Exposure of Form-II to 50 degrees Celsius at zero and 75% relative humidity (microscopy); conditions: 18 days
Text: Form-II was further subjected to a temperature of 50 degrees Celsius at respectively zero (FIG. 3) and 75% relative humidity (FIG. 4) for 18 days.

[3] = Vapour sorption experiments (moisture isotherm)
Text: The sharp increase is attributed to the condensation of water on the sample holder.

[4] = Chemical stability by HPLC analysis; conditions: after solubility test
Procedure: as §1

| solubility at 24 h ([1]; pH 4.5, aqueous buffer) | solubility at 24 h ([1]; pH 6.8, aqueous buffer) | solubility at 24 h ([1]; water) | solubility ([1]; pH 4.5, aqueous buffer) | solubility ([1]; pH 6.8, aqueous buffer) | solubility ([1]; water) | SMILES | solubility ([1]; acetate buffer (pH 4.5), 37 degrees Celsius, twenty-four hours) | solubility ([1]; distilled water, 37 degrees Celsius, twenty-four hours) | more soluble than monohydrated roxithromycin (theoretical solubility of 1.8 μg/ml) ([1]; in water) | solubility ([1]; phosphate buffer (pH 6.8), 37 degrees Celsius, twenty-four hours) | crystallisation ([2]; 75% relative humidity) | crystallisation ([2]; zero relative humidity) | increase in weight (moisture isotherm) ([3]; from 70 to 90% RH, attributed to condensation of water on the sample holder) | weight loss upon decreasing the humidity ([3]; from 90 to 0% RH, returned to starting weight) | increase in weight (moisture isotherm) ([3]; relative humidity up to 60% RH) | solid state after high levels of moisture ([3]; vapour sorption up to 90% RH) | chemical stability (HPLC analysis) [4] |
| --- | --- | --- | --- | --- | --- | --- | --- | --- | --- | --- | --- | --- | --- | --- | --- | --- | --- |
|  |  |  |  |  |  | CC[C@H]1OC(=O)[C@H](C)[C@@H](O[C@H]2C[C@@](C)(OC)[C@@H](O)[C@H](C)O2)[C@H](C)[C@@H](O[C@@H]2O[C@H](C)C[C@H](N(C)C)[C@H]2O)[C@](C)(O)C[C@@H](C)C(=NOCOCCOC)[C@H](C)[C@@H](O)[C@]1(C)O [Form-II, 3R,4S,5S,6R,7R,9R,11S,12R,13S,14R-6-[(2S,3R,4S,6R)-4-dimethylamino-3-hydroxy-6-methyloxan-2-yl]oxy-14-ethyl-7,12,13-trihydroxy-4-[(2R,4R,5S,6S)-5-hydroxy-4-methoxy-4,6-dimethyloxan-2-yl]oxy-10-(2-methoxyethoxymethoxyimino)-3,5,7,9,11,13-hexamethyl-1-oxacyclotetradecan-2-one] | 762.71 ± 2.6 µg/mL (≈ 911 µM) | 32.86 ± 3.5 µg/mL (≈ 39.3 µM) | 1798% | 134.4 ± 4.9 µg/mL (≈ 161 µM) | no crystallisation | no crystallisation | up to 4% | 4% | approximately 1.5% | remained amorphous | chemically stable |
| 370 ± 8.3 µg/mL (≈ 442 µM) | 74.8 ± 5.1 µg/mL (≈ 89.4 µM) | 1.7 ± 0.6 µg/mL (≈ 2.03 µM) | 370 µg/mL (≈ 442 µM) | 74.8 µg/mL (≈ 89.4 µM) | 1.8 µg/mL (≈ 2.15 µM) | CC[C@H]1OC(=O)[C@H](C)[C@@H](O[C@H]2C[C@@](C)(OC)[C@@H](O)[C@H](C)O2)[C@H](C)[C@@H](O[C@@H]2O[C@H](C)C[C@H](N(C)C)[C@H]2O)[C@](C)(O)C[C@@H](C)/C(=N\OCOCCOC)[C@H](C)[C@@H](O)[C@]1(C)O [roxithromycin raw material, roxithromycin] |  |  |  |  |  |  |  |  |  |  |  |
